The source of these data is the supplement of paper PMC11208160.
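Note: IS621 bridge recombinase in Escherichia coli cells against a fixed T5 target plasmid.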

A short description of this data set: recombinant UMI read abundance after kanamycin selection (control-corrected) (log10(CPM+1)); higher = more efficient recombination; extreme values may be limits of the assay; sequences stand for … in AGTGCAGAGAAAATCGGCCAGTTTTCTCTGCCTGCAGTCCGCATGCCGTGGGACCCCTTGGGTTCTAACCTGTTGCCTAGATTTATGCAGCGGACTGCCTTTCTCCCAAAGTGATAAACCGG…AGGTTGGTTTCACT; site = the 11-nt donor. An outline of the steps:
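After plating on IPTG (0.07 mM) plus kanamycin, or unselected, in two replicates, recombinant UMIs were PCR-amplified across the donor–target junction and sequenced. The cells were Escherichia coli co-electroporated with a UMI-tagged donor and donor-binding-loop pair library and a target plasmid with a fixed target and T7-inducible IS621 bridge recombinase. Values are log10(CPM+1), with CPM averaged over replicates and scaled by control-derived factors.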
Regarding “CCACCACCATGGACCGGTTTTCCCGGTAATCCGTATTTGTA (site CCACCACCTTA)”, the “recombinant UMI read abundance (log10)” value was 0.00663.

As for “CCACGAACATGGACCGGTTTTCCCGGTAATCCGTATTTGCA (site CCACGAACTTG)”, the “recombinant UMI read abundance (log10)” value is 0.

Take “CCACGCGCATGGACCGGTTTTCCCGGTAATCCGTATTTGAG (site CCACGCGCTCT)”: the “recombinant UMI read abundance (log10)” value amounted to 0.759.

“CCAGAATCATGGACCGGTTTTCCCGGTAATCCGTATTTGTG (site CCAGAATCTCA)”: the “recombinant UMI read abundance (log10)” value was determined as 2.13.

Turning to “CCAGCAGCATGGACCGGTTTTCCCGGTAATCCGTATTTGCT (site CAAGCAGCTAG)”, the “recombinant UMI read abundance (log10)” value is 0.

Consider “CCAGCAGCATGGACCGGTTTTCCCGGTAATCCGTATTTGCT (site CCAGCAGCTAG)”, for which the “recombinant UMI read abundance (log10)” value amounted to 0.104.

For “CCAGCAGCATGGACCGGTTTTCCCGGTAATCCGTATTTGCT (site CGAGCAGCTAG)”, the “recombinant UMI read abundance (log10)” value stood at 0.

On to “CCAGCAGCATGGACCGGTTTTCCCGGTAATCCGTATTTGCT (site CTAGCAGCTAG)”, for which the “recombinant UMI read abundance (log10)” value was found to be 0.0142.

As to “CCAGCATCATGGACCGGTTTTCCCGGTAATCCGTATTTGAC (site CCAGCATCTGT)”, the “recombinant UMI read abundance (log10)” value turned out to be 0.

As for “CCAGCATCATGGACCGGTTTTCCCGGTAATCCGTATTTGAC (site CTAGTATCTGT)”, the “recombinant UMI read abundance (log10)” value was 0.

On to “CCAGGAGCATGGACCGGTTTTCCCGGTAATCCGTATTTGAT (site CCAGGAGCTAT)”, for which the “recombinant UMI read abundance (log10)” value amounted to 1.6.

With “CCAGGAGCATGGACCGGTTTTCCCGGTAATCCGTATTTGAT (site CCAGGCGCTAT)”, the “recombinant UMI read abundance (log10)” value amounted to 0.854.

Consider “CCAGGAGCATGGACCGGTTTTCCCGGTAATCCGTATTTGAT (site CCAGGGGCTAT)”, for which the “recombinant UMI read abundance (log10)” value was found to be 0.941.

“CCAGGAGCATGGACCGGTTTTCCCGGTAATCCGTATTTGAT (site CCAGGTGCTAT)”: the “recombinant UMI read abundance (log10)” value came to 1.78.

For the sequence “CCAGGTACATGGACCGGTTTTCCCGGTAATCCGTATTTGAT (site CCAGGTACTAT)”, the “recombinant UMI read abundance (log10)” value turned out to be 0.643.

Regarding “CCAGGTACATGGACCGGTTTTCCCGGTAATCCGTATTTGAT (site CCAGGTCCTAT)”, the “recombinant UMI read abundance (log10)” value stood at 0.

Take “CCAGGTACATGGACCGGTTTTCCCGGTAATCCGTATTTGAT (site CCAGGTGCTAT)”: the “recombinant UMI read abundance (log10)” value was determined as 1.2.

Consider “CCAGGTACATGGACCGGTTTTCCCGGTAATCCGTATTTGAT (site CCAGGTTCTAT)”, for which the “recombinant UMI read abundance (log10)” value was 0.478.

For “CCAGGTGCATGGACCGGTTTTCCCGGTAATCCGTATTTGCT (site CCAGGTGCTAA)”, the “recombinant UMI read abundance (log10)” value amounted to 0.208.

Regarding “CCAGGTGCATGGACCGGTTTTCCCGGTAATCCGTATTTGCT (site CCAGGTGCTAC)”, the “recombinant UMI read abundance (log10)” value was 0.00458.

“CCAGGTGCATGGACCGGTTTTCCCGGTAATCCGTATTTGCT (site CCAGGTGCTAG)”: the “recombinant UMI read abundance (log10)” value worked out at 1.46.

For the sequence “CCAGGTGCATGGACCGGTTTTCCCGGTAATCCGTATTTGCT (site CCAGGTGCTAT)”, the “recombinant UMI read abundance (log10)” value stood at 0.402.

With “CCAGGTGCATGGACCGGTTTTCCCGGTAATCCGTATTTGTT (site CCAGGTGCTAA)”, the “recombinant UMI read abundance (log10)” value was 0.856.

With “CCAGGTGCATGGACCGGTTTTCCCGGTAATCCGTATTTGTT (site CCAGGTGCTAC)”, the “recombinant UMI read abundance (log10)” value came out at 0.00844.

Take “CCAGGTGCATGGACCGGTTTTCCCGGTAATCCGTATTTGTT (site CCAGGTGCTAG)”: the “recombinant UMI read abundance (log10)” value worked out at 1.42.

For the sequence “CCAGGTGCATGGACCGGTTTTCCCGGTAATCCGTATTTGTT (site CCAGGTGCTAT)”, the “recombinant UMI read abundance (log10)” value came to 1.14.

Regarding “CCAGTATCATGGACCGGTTTTCCCGGTAATCCGTATTTGAC (site CAAGTATCTGT)”, the “recombinant UMI read abundance (log10)” value was determined as 0.983.

Turning to “CCAGTATCATGGACCGGTTTTCCCGGTAATCCGTATTTGAC (site CCAGTATCTGT)”, the “recombinant UMI read abundance (log10)” value was found to be 0.685.

Consider “CCAGTATCATGGACCGGTTTTCCCGGTAATCCGTATTTGAC (site CGAGTATCTGT)”, for which the “recombinant UMI read abundance (log10)” value stood at 0.

In the case of “CCAGTATCATGGACCGGTTTTCCCGGTAATCCGTATTTGAC (site CTAGTATCTGT)”, the “recombinant UMI read abundance (log10)” value worked out at 0.871.

Turning to “CCATACACATGGACCGGTTTTCCCGGTAATCCGTATTTGTT (site CCATACACTAA)”, the “recombinant UMI read abundance (log10)” value amounted to 0.866.

“CCATATTCATGGACCGGTTTTCCCGGTAATCCGTATTTGAC (site GGGATCGCTAC)”: the “recombinant UMI read abundance (log10)” value was 0.00628.

With “CCATCAGCATGGACCGGTTTTCCCGGTAATCCGTATTTGCT (site CCATCAGCTAG)”, the “recombinant UMI read abundance (log10)” value turned out to be 0.375.

Turning to “CCATCAGCATGGACCGGTTTTCCCGGTAATCCGTATTTGCT (site CGATCATCTAG)”, the “recombinant UMI read abundance (log10)” value stood at 0.145.

“CCATCATCATGGACCGGTTTTCCCGGTAATCCGTATTTGCA (site CCATCATCTTG)”: the “recombinant UMI read abundance (log10)” value was determined as 0.

For “CCATCATCATGGACCGGTTTTCCCGGTAATCCGTATTTGCA (site CGATCATCTAG)”, the “recombinant UMI read abundance (log10)” value worked out at 0.

Take “CCATCCCCATGGACCGGTTTTCCCGGTAATCCGTATTTGAT (site CCATCCCCTAT)”: the “recombinant UMI read abundance (log10)” value came out at 0.0114.

In the case of “CCATTATCATGGACCGGTTTTCCCGGTAATCCGTATTTGAC (site CCATTATCTGT)”, the “recombinant UMI read abundance (log10)” value was determined as 0.804.

Consider “CCCAAATCATGGACCGGTTTTCCCGGTAATCCGTATTTGTC (site CCCAAATCTGA)”, for which the “recombinant UMI read abundance (log10)” value was determined as 1.93.

As to “CCCAAATCATGGACCGGTTTTCCCGGTAATCCGTATTTGTC (site CCCACATCTGA)”, the “recombinant UMI read abundance (log10)” value was 0.

Turning to “CCCAAATCATGGACCGGTTTTCCCGGTAATCCGTATTTGTC (site CCCAGATCTGA)”, the “recombinant UMI read abundance (log10)” value came to 0.

Regarding “CCCAAATCATGGACCGGTTTTCCCGGTAATCCGTATTTGTC (site CCCATATCTGA)”, the “recombinant UMI read abundance (log10)” value came out at 0.

Consider “CCCAAGCCATGGACCGGTTTTCCCGGTAATCCGTATTTGCC (site CCCAAGCCTGG)”, for which the “recombinant UMI read abundance (log10)” value worked out at 0.

As to “CCCAAGCCATGGACCGGTTTTCCCGGTAATCCGTATTTGCC (site CCCCAGCCTGG)”, the “recombinant UMI read abundance (log10)” value is 0.

Turning to “CCCAAGCCATGGACCGGTTTTCCCGGTAATCCGTATTTGCC (site CCCGAGCCTGG)”, the “recombinant UMI read abundance (log10)” value was determined as 0.

In the case of “CCCAAGCCATGGACCGGTTTTCCCGGTAATCCGTATTTGCC (site CCCTAGCCTGG)”, the “recombinant UMI read abundance (log10)” value was 0.398.

For the sequence “CCCAGCACATGGACCGGTTTTCCCGGTAATCCGTATTTGAA (site CCCAGCACTTT)”, the “recombinant UMI read abundance (log10)” value amounted to 0.515.

As for “CCCAGCTCATGGACCGGTTTTCCCGGTAATCCGTATTTGCA (site CCCAGCTCTTG)”, the “recombinant UMI read abundance (log10)” value was determined as 2.3.

Consider “CCCATACCATGGACCGGTTTTCCCGGTAATCCGTATTTGTG (site CCCATACCTCA)”, for which the “recombinant UMI read abundance (log10)” value amounted to 0.0125.

As to “CCCATATCATGGACCGGTTTTCCCGGTAATCCGTATTTGGC (site CCCATATCTGA)”, the “recombinant UMI read abundance (log10)” value was found to be 0.

With “CCCATATCATGGACCGGTTTTCCCGGTAATCCGTATTTGGC (site CCCATATCTGC)”, the “recombinant UMI read abundance (log10)” value was 0.

Regarding “CCCATATCATGGACCGGTTTTCCCGGTAATCCGTATTTGGC (site CCCATATCTGG)”, the “recombinant UMI read abundance (log10)” value came to 0.

“CCCATATCATGGACCGGTTTTCCCGGTAATCCGTATTTGGC (site CCCATATCTGT)”: the “recombinant UMI read abundance (log10)” value was 0.0107.

Turning to “CCCATCTCATGGACCGGTTTTCCCGGTAATCCGTATTTGCT (site CCCATCTCTAG)”, the “recombinant UMI read abundance (log10)” value turned out to be 1.63.

Take “CCCATCTCATGGACCGGTTTTCCCGGTAATCCGTATTTGTC (site CCCATATCTGA)”: the “recombinant UMI read abundance (log10)” value stood at 0.

As for “CCCATCTCATGGACCGGTTTTCCCGGTAATCCGTATTTGTC (site CCCATCTCTGA)”, the “recombinant UMI read abundance (log10)” value amounted to 1.35.

Regarding “CCCATCTCATGGACCGGTTTTCCCGGTAATCCGTATTTGTC (site CCCATGTCTGA)”, the “recombinant UMI read abundance (log10)” value is 0.

On to “CCCATCTCATGGACCGGTTTTCCCGGTAATCCGTATTTGTC (site CCCATTTCTGA)”, for which the “recombinant UMI read abundance (log10)” value was determined as 0.

Turning to “CCCCAAGCATGGACCGGTTTTCCCGGTAATCCGTATTTGGC (site CCCCAAGCTGC)”, the “recombinant UMI read abundance (log10)” value turned out to be 0.

“CCCCACACATGGACCGGTTTTCCCGGTAATCCGTATTTGCA (site CCCCACACTTA)”: the “recombinant UMI read abundance (log10)” value was determined as 0.0196.

Take “CCCCACACATGGACCGGTTTTCCCGGTAATCCGTATTTGCA (site CCCCACACTTC)”: the “recombinant UMI read abundance (log10)” value came out at 0.0185.

Take “CCCCACACATGGACCGGTTTTCCCGGTAATCCGTATTTGCA (site CCCCACACTTG)”: the “recombinant UMI read abundance (log10)” value amounted to 1.88.

For “CCCCACACATGGACCGGTTTTCCCGGTAATCCGTATTTGCA (site CCCCACACTTT)”, the “recombinant UMI read abundance (log10)” value came out at 0.16.

Take “CCCCACGCATGGACCGGTTTTCCCGGTAATCCGTATTTGGC (site CCCCACGCTGC)”: the “recombinant UMI read abundance (log10)” value turned out to be 0.767.

As to “CCCCACGCATGGACCGGTTTTCCCGGTAATCCGTATTTGTA (site CCCCACACTTA)”, the “recombinant UMI read abundance (log10)” value turned out to be 0.643.

Consider “CCCCACGCATGGACCGGTTTTCCCGGTAATCCGTATTTGTA (site CCCCACCCTTA)”, for which the “recombinant UMI read abundance (log10)” value was found to be 0.00405.

Regarding “CCCCACGCATGGACCGGTTTTCCCGGTAATCCGTATTTGTA (site CCCCACGCTTA)”, the “recombinant UMI read abundance (log10)” value amounted to 0.81.

As for “CCCCACGCATGGACCGGTTTTCCCGGTAATCCGTATTTGTA (site CCCCACTCTTA)”, the “recombinant UMI read abundance (log10)” value came out at 0.923.
